# Measured values: patent US20230321171A1, “ANTI-COCCIDIAL COMPOSITION COMPRISING MANGOSTEEN AND USES THEREOF” (CJ CHEILJEDANG CORPORATION, priority 2020, published 2023)
# How the values were obtained:
# Eimeria tenella [1] = assay: Protozoan (sporozoite) direct killing ability, Eimeria tenella; type: cell-based; conditions: for Eimeria tenella protozoal death rate (%): compared to PBS-treated negative control group
# Protocol: (§1) In the present example, protozoan (sporozoite) direct killing ability evaluation was conducted against 3 representative Eimeria kinds known to be infected in most farms (E. tenella, E. acervulina, E. maxima).
# (§2) A certain amount of oocysts of each protozoan was put in a tube containing glass beads and pulverized, and then to remove the crushed oocyst cell wall and other debris, internal sporocysts were purified using the percoll density gradient, and washed with PBS solution. A reagent comprising sodium taurocholic acid (Sigma aldrich, USA) and trypsin (Gibco, USA), respectively, was treated to sporocysts of Eimeria tenella, Eimeria acervulina and Eimeria maxima for excystation and they were incubated, and then they were washed with PBS solution once and protozoa were obtained.
# (§3) After reacting the mangosteen pericarp extract, epicatechin, alpha-mangostin, xanthone and anticoccidial agents, salinomycin and diclazuril (hereinafter, material) with 3 kinds of Eimeria protozoa at various concentrations of 1 to 500 ppm, respectively, only alive protozoa (sporozoites) were counted through microscopic observation. Then, the death rate (%) of the protozoa when each material was treated compared to the PBS-treated negative control group was calculated and shown in Table 8 to Table 10 and Table 12, respectively, and the minimum concentration which directly killed the protozoa by 100% was shown in Table 11 below.
# Eimeria maxima = assay: Protozoan (sporozoite) direct killing ability, Eimeria maxima; type: cell-based; conditions: for Eimeria maxima protozoal death rate (%): compared to PBS-treated negative control group
# Protocol: as §1, §2, §3
# Eimeria tenella [2] = assay: In vivo anticoccidial efficacy evaluation in broilers challenge-inoculated with Eimeria tenella; design: species or system Ross broilers
# Protocol: An in vivo anticoccidial efficacy evaluation test was performed in an animal experiment facility in Gyeongsangnam-do, South Korea. One-day-old female Ross broilers were individually weighed and randomly divided into groups to use in an experiment. Matters and conditions for experimental design were described in Table 2.
# A breeding farm was managed according to the Korean poultry breeding management guidelines. Cages and the breeding farm were cleaned and disinfected before starting the test. The temperature of […] and the humidity of 40 to 50% of the breeding farm were maintained, and it was continuously monitored.
# For the feed, Korea Feed Al-choi product was used, and each material (salinomycin (Cheil Bio Cheilsalino-60 product), xanthone (Sigma Aldrich X600 product), and the mangosteen extract prepared in Example 1-2 above) was added to the feed, respectively, at a concentration described in Table 3 below to be self-mixed. Antibiotics and supplements were not used in general feed and mixed feed, and no anticoccidial agent other than each material was added. Broilers were fed ad libitum throughout the experiment period. After putting 20 1-day-age broilers in cages randomly placed for each of the control group or test group and breeding, general feed was fed for 7 days, and then the mixed feed prepared above was ingested by dividing by control group or test group.
# The feed formulation administered to the control group (negative control group or positive control group) and test group and whether coccidiosis was induced by Eimeria tenella were described in Table 3 below. 20 1-day-old broilers were put in a cage randomly arranged for each test group, and after 7 days of feeding the general feed, the formulated feed as described in Table 3 was divided into each test group and ingested.
# 14-day-old broilers were orally inoculated with 10,000 oocysts (90% sporulated Eimeria tenella oocysts) per individual to induce coccidiosis.
# The anticoccidial efficacy by test group designed in Example 1-3 above was shown as an anticoccidial index (ACI), and the anticoccidial index was calculated by Equation 2 below. The ACI score is out of 200 points, and the higher the ACI score, the more excellent the anticoccidial ability, and when it is 120 points or more to less than 140 points, it is determined that it is effective as an anticoccidial material, and when it is 140 points or more to less than 160 points, it is determined that it is excellent as an anticoccidial material, and when it is 160 points or more, it is determined that the anticoccidial effect is very excellent. (Luis Miguel De Pablos et al., Anticoccidial activity of maslinic acid against infection with Eimeria tenella in chickens, Parasitol Res, 2010)
# Anticoccidial index (ACI)=(survival rate after challenge inoculation (%))+(daily weight gain compared to negative control group (RWG, %))−(lesion score×10)−(fecal oocyst excretion amount index) (Equation 2)
# 1) Survival rate: the number of dead individuals was recorded daily, and post mortem autopsy was performed to determine a cause of mortality, and the number of individuals who died due to causes other than coccidiosis was excluded. The survival rate (%) up to the 8th day after challenge inoculation was used for anticoccidial index calculation.
# 2) Daily weight gain: body weight was measured for each cage before challenge inoculation with a protozoan into an individual and at the 7th day after challenge inoculation, and the difference was divided by the number of days to calculate the daily weight gain (ADG, g/d). ‘Daily weight gain compared to the negative control group (RWG, %)’which was calculated by dividing the daily weight gain (ADG, average daily gain; g/d) of each experimental group by the weight gain (ADG, g/d) of the non-infected negative control group and multiplying by 100 was used for anticoccidial index calculation. […]
compound,measurement,setting,value
"O=c1c2ccccc2oc2ccccc12 [Xanthone, xanthone]",Eimeria tenella protozoal death rate (%),Eimeria tenella [1]; 1 ppm,0%
same,Eimeria tenella protozoal death rate (%),Eimeria tenella [1]; 5 ppm,0%
same,Eimeria tenella protozoal death rate (%),Eimeria tenella [1]; 10 ppm,0%
same,Eimeria tenella protozoal death rate (%),Eimeria tenella [1]; 50 ppm,0%
same,Eimeria tenella protozoal death rate (%),Eimeria tenella [1]; 100 ppm,0%
same,Eimeria tenella protozoal death rate (%),Eimeria tenella [1]; 125 ppm,10%
same,Eimeria tenella protozoal death rate (%),Eimeria tenella [1]; 250 ppm,0%
same,Eimeria tenella protozoal death rate (%),Eimeria tenella [1]; 500 ppm,15%
same,Minimum concentrataion of killing protozoa 100% (ppm),"Eimeria tenella [1]; Eimeria tenella, Table 15, method similar to Example 2-1",≥500 ppm
same,"Minimum concentration for killing 100% protozoa (ppm), Eimeria tenella",Eimeria tenella [1]; tested 1 to 500 ppm,>500 ppm
same,Eimeria maxima protozoal death rate (%),Eimeria maxima; 1 ppm,0%
same,Eimeria maxima protozoal death rate (%),Eimeria maxima; 5 ppm,0%
same,Eimeria maxima protozoal death rate (%),Eimeria maxima; 10 ppm,0%
same,Eimeria maxima protozoal death rate (%),Eimeria maxima; 50 ppm,0%
same,Eimeria maxima protozoal death rate (%),Eimeria maxima; 100 ppm,0%
same,Eimeria maxima protozoal death rate (%),Eimeria maxima; 125 ppm,0%
same,Eimeria maxima protozoal death rate (%),Eimeria maxima; 250 ppm,5%
same,Eimeria maxima protozoal death rate (%),Eimeria maxima; 500 ppm,12%
same,"Minimum concentration for killing 100% protozoa (ppm), Eimeria maxima",Eimeria maxima; tested 1 to 500 ppm,>500 ppm
same,"Intermediate body weight (14-day-old, before challenge inoculation)","Eimeria tenella [2]; formulated feed 62.5 ppm from day 7, female Ross broilers",470.9
same,Appendix lesion score,"Eimeria tenella [2]; formulated feed 62.5 ppm, 8th day after challenge inoculation, scale of 0-4",2.4
same,"End body weight (21-day-old, on the 7th day of challenge inoculation)","Eimeria tenella [2]; formulated feed 62.5 ppm, 10,000 E. tenella oocysts oral at 14 days",887.0
same,Day 14~Day 21 ADG (daily weight gain),"Eimeria tenella [2]; formulated feed 62.5 ppm, E. tenella infected broilers",56.42 g/day
same,Anticoccidial index (ACI),"Eimeria tenella [2]; formulated feed 62.5 ppm, Equation 2, out of 200 points",122
same,Oocyst excretion amount/gram,"Eimeria tenella [2]; formulated feed 62.5 ppm, feces of 6~8th day of challenge inoculation, McMaster chamber",1.80E+08 /gram
same,RWG (daily weight gain compared to the negative control group),"Eimeria tenella [2]; formulated feed 62.5 ppm, relative to non-infected negative control group",85%
